Measurements: ChEMBL document CHEMBL3301472, “MMV Malaria Box HIV and cytotoxicity screening”

Columns and labels:
Assay type in all cases: toxicity, cell-based
[1] = MMV: MTT Cytotoxicity Assay Day 3 pi, U87-CD4-CCR5 cells, % cell death @ 5mM compound; conditions: human, u87-cd4-ccr5, 5000 µM
[2] = MMV: MTT Cytotoxicity Assay Day 7 pi of Assay #7 (compound washed out Day 1 pi), U87-CD4-CXCR4 cells, % cell death @ 5mM compound; conditions: human, u87-cd4-cxcr4, 5000 µM
[3] = MMV: MTT Cytotoxicity Assay Day 3 pi, U87-CD4-CXCR4 cells, % cell death @ 5mM compound; conditions: human, u87-cd4-cxcr4, 5000 µM
[4] = MMV: MTT Cytotoxicity Assay Day 7 pi of Assay #10 (NO washout), U87-CD4-CCR5 cells, % cell death @ 5mM compound; conditions: human, u87-cd4-ccr5, 5000 µM
[5] = MMV: MTT Cytotoxicity Assay Day 7 pi of Assay #6 (compound washed out Day 1 pi), U87-CD4-CCR5 cells, % cell death @ 5mM compound; conditions: human, u87-cd4-ccr5, 5000 µM
[6] = MMV: MTT Cytotoxicity Assay Day 7 pi of Assay #11 (NO washout), U87-CD4-CXCR4 cells, % cell death @ 5mM compound; conditions: human, u87-cd4-cxcr4, 5000 µM

| SMILES | % Cell Death [1] | % Cell Death [2] | % Cell Death [3] | % Cell Death [4] | % Cell Death [5] | % Cell Death [6] |
| --- | --- | --- | --- | --- | --- | --- |
| CCn1nc(-c2ccc(C(=O)OC)cc2)nc2c(=O)n(C)c(=O)nc1-2 | 1 | -23 | 21 | -2 | 6 | 18 |
| CCOc1ccccc1CN1CCc2nc3cc(C(C)(C)C)nn3c(O)c2C1 | 100 | 3 | 21 | 95 | -7 | 98 |
| Cc1cc(N2CCCC2)nc(Nc2ccc(NC(=O)CCc3ccccc3)cc2)n1 | 14 | -12 | 30 | 0 | 20 | -21 |
| Cc1cc(NC(=O)c2cccc(C(F)(F)F)c2)n(-c2nc(-c3ccc4c(c3)OCO4)cs2)n1 | 40 | -18 | 17 | 9 | 16 | -57 |
| CC(C)(C)CC(C)(C)NCC(O)COc1ccc(Cl)cc1Cl (stereo not given) | -7 | -31 | 39 | -1 | -12 | 8 |
| Cc1cccc(-n2ncc3c(O)nc(-n4nc(C)cc4NC(=O)c4cc5ccccc5o4)nc32)c1 | 6 | 1 | 39 | 23 | 23 | 82 |
| COCCNCC(O)Cn1c2ccc(Cl)cc2c2cc(Cl)ccc21 (stereo not given) | 29 | -16 | 30 | 28 | 14 | 15 |
| COc1ccc2nc(C)cc(Nc3ccc(Cl)cc3)c2c1 | 106 | 90 | 100 | 121 | 103 | 117 |
| O=C(NC1CCN(Cc2ccccc2)CC1)c1cc(-c2ccncc2)nc2ccc(Cl)cc12 | 13 | 8 | 31 | 2 | -18 | 58 |
| CCC(O)c1ccc(Br)cc1NC(=O)c1cccc(Cl)c1 (stereo not given) | -44 | 28 | 11 | 6 | -24 | -37 |
| CN(C)CCCNCc1ccc(-c2ccc(F)c(Cl)c2)o1.Cl | 20 | -17 | 27 | 8 | 16 | -24 |
| O=c1nc(C=Cc2ccc(Br)cc2)oc2ccccc12 | 17 | 24 | 23 | 35 | -7 | -17 |
| COc1ccc2nc(N)nc(C)c2c1 | 15 | -3 | 34 | 17 | -35 | 15 |
| COc1cc(OC)cc(C(=O)Nc2ccc(-c3nc4ccccc4[nH]3)cc2)c1 | 47 | 55 | 63 | 115 | 59 | 116 |
| O=C(Nc1ccc(CN2CCOCC2)cc1)c1ccc(-c2cc(Cl)ccc2Cl)o1 | -2 | -21 | 28 | 41 | -8 | 36 |
| CN1CCN(c2c3c(c(C#N)c4nc5ccccc5n24)CCC3)CC1 | -3 | -15 | -10 | 8 | 1 | 16 |
| CCOc1ccc(C2N(C)c3ccccc3N2C)cc1 | 92 | 98 | 79 | 115 | 105 | 100 |
| COc1cccc(C(=O)Nc2ccc(-c3nc4ccccc4[nH]3)cc2)c1 | 27 | 7 | 39 | 34 | 3 | 35 |
| O=C(Nc1cccc(-c2nc3ccccc3[nH]2)c1)c1cccc(NC(=O)c2ccco2)c1 | -8 | -31 | 22 | 20 | 11 | -18 |
| CCN(Cc1ccccc1)C1CCN(Cc2cc(Br)ccc2O)CC1.O=C(O)C(=O)O | -5 | 0 | 27 | 20 | 6 | -25 |

| SMILES | % Cell Death [1] | % Cell Death [2] | % Cell Death [3] | % Cell Death [4] | % Cell Death [5] | % Cell Death [6] |
| --- | --- | --- | --- | --- | --- | --- |
| COc1nc(Nc2ccc(C(C)C)cc2)nc(OC)n1 | -1 | -7 | 32 | 33 | 33 | 24 |
| CCN(CC)CCNc1ncnc2c1[nH]c1ccc(Br)cc12 | -7 | -18 | 24 | 15 | -1 | -18 |
| CCOc1cccc(C(=O)Nc2ccc(-c3nc4ccccc4[nH]3)cc2)c1 | -33 | -23 | 46 | 6 | 8 | 65 |
| CCOc1ccccc1NC(=O)CN1CCN(C(=O)c2ccco2)CC1 | -66 | 38 | -22 | 37 | 13 | 36 |
| O=C(Nc1ccc(N2CCN(Cc3ccccc3)CC2)cc1)c1cccs1.O=C(O)C(F)(F)F | -2 | -26 | 55 | 124 | 4 | 28 |
| O=C(Nc1ccc(N2CCCCC2)c(Cl)c1)c1ccc(Br)o1 | 97 | 53 | 61 | 76 | 26 | 99 |
| O=C1CC(O)(C(F)(F)C(F)(F)F)Oc2ccccc21 (stereo not given) | -14 | -15 | 32 | 17 | 4 | 35 |
| COc1cc(SC)ccc1C(=O)N1CCCC(C)C1 (stereo not given) | 9 | -26 | 28 | -5 | 12 | -41 |
| CC(C)c1ccc(CNCC(O)c2ccccc2)cc1.Cl (stereo not given) | -53 | -18 | 29 | 14 | -1 | 3 |
| OC(CNC1CCCC1)Cn1c2ccccc2c2ccccc21 (stereo not given) | 10 | -15 | 31 | 7 | 2 | -3 |
| O=C(O)C(=O)O.Oc1ccc(Br)cc1CN1CCN(Cc2cccc(F)c2)CC1 | 107 | 86 | 101 | 103 | 94 | 112 |
| COc1cc2c(cc1OC)C1=NNC(=O)C1=NC(C)(C)C2 | 107 | 95 | 100 | 106 | 101 | 98 |
| Cl.OC(CNCc1ccccc1)Cn1c2ccccc2c2ccccc21 (stereo not given) | 19 | -9 | 18 | 11 | 10 | -23 |
| Oc1c2c(nc3cc(-c4ccccc4)nn13)CCCC2 | 37 | -10 | 6 | 1 | 26 | -22 |
| CCCCc1c(C)nc2c(OC)cccc2c1O | 0 | 17 | 52 | 74 | 43 | 46 |
| CCOC(=O)C1CCN(C(=O)CN2C(=O)c3ccccc3C2c2c[nH]c3ccccc23)CC1 (stereo not given) | 107 | 39 | 35 | 109 | 52 | 112 |
| CCOc1ccc(CCNC(=O)c2cccs2)cc1OCC | 45 | -3 | 30 | 2 | -20 | -9 |
| O=c1c2c([nH]c3ccccc13)CCCC2 | 9 | -18 | 33 | -11 | 7 | -44 |
| CCCCOc1ccc(C(=O)Nc2cc(C)on2)cc1 | 54 | -14 | 31 | 4 | -17 | 33 |
| CCCCN(CCCC)S(=O)(=O)c1ccc(NC(=O)c2ccco2)cc1 | 58 | 41 | 45 | 74 | 36 | 39 |
